PMC11783601, “Analogue-Sensitive Inhibition of Histone Demethylases Uncovers Member-Specific Function in Ribosomal Protein Synthesis” (Journal of the American Chemical Society, 2025)

What was measured:
[1] = tested on: asKDM4 mutants (KDM4A-F185A, KDM4C-F187A, KDM4D-F189A and KDM4E-F186A); test: Demethylation of extracted full-length histones, Western blot with H3K9me3 antibody; type: biochemical, human; details: histones extracted from HEK293T cells, 20 µM (Fig S19 legend)
Description: We next tested the inhibitory potential of 6 against these proteins using H3K9me3 peptide substrate and analyzed it by MALDI-MS. […] We subsequently examined the ability of asKDM4 variants to demethylate full-length histones extracted from mammalian cells. HEK293T cells were cultured in the presence of 10 μM n-octyl IOX1, a broad-spectrum inhibitor of demethylases,[41],[42] to generate a hypermethylated proteome (Figure S19). The extracted histone was incubated with the as variants individually, each with or without 6, and the extent of demethylation was analyzed by Western blot using the H3K9me3-specific antibody. […]
directly to ice and 2M Ammonium Acetate was added and left on ice for 5 minutes. […]
The supernatant was transferred to a fresh 1.5 mL centrifuge tube, 132 µL of TCA was added dropwise to precipitate the histones and incubated on ice for 30 mins to 1.5 hr. […] 1 µL of histone extracts was loaded on a 15% gel with the BSA standards to quantify the amount of H3 for the assay. […]
(NH4)2Fe(SO4)2, 2 mM L-ascorbic acid and 50 mM Tris pH 8.0 were incubated with or without 150 µM of L-Leu NOG for 5 minutes on ice, after which substrate (300 µM 2OG and 2 µg of Histone extract) was added to the tube. The assay was incubated at 37 °C for 1.5 hours, the samples were analyzed via western blotting using H3K9me3 specific antibody. […]

PHD3 (EGLN3) = target: T1, PHD3 (EGLN3) (Homo sapiens, UniProt Q9H6Z9); test: MALDI-based assay EGLN3 prolyl hydroxylation of peptide; type: biochemical; details: MALDI-TOF, peptide substrate
T1 construct: Full length EGLN3 construct plasmid with; TEV-His (N); host or cells: E. coli BL21 (DE3)
T1 sequence (Q9H6Z9 whole entry): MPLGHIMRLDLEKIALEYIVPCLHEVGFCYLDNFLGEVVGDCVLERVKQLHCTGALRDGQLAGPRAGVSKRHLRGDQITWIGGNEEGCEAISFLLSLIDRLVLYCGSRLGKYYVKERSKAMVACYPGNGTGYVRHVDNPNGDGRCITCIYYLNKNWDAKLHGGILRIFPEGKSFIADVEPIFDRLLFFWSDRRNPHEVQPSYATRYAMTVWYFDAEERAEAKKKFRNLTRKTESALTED
Description: demethylation events on the peptide. The percent peak area was calculated, and the K27me2, me1,
and me0 peaks were summed to get the relative percent demethylated peptide.
MALDI-based assay for FTO and ALKBH5: To determine the enzymatic activity of FTO and
ALKBH5 recombinant proteins in the presence of L-Leu NOG 6, a previously published methods
were utilized.15, 18 Briefly,10 µM of each protein was incubated in the presence of 10 µM RNA
7.5, 150 mM KCl, 50 µM L-Leu NOG or equivalent volume of water in 10 µL aliquots. The
samples were placed on ice for 10 minutes followed by addition of 200 µM 2OG or equivalent
volume of water. After incubation at 37 °C for 30 minutes, samples were desalted with 3 µL of BT
spotted on a MALDI plate with 1uL sample and 1uL of 3-HPA matrix and monitored with Bruker
FlexControl in the reflectron negative mode and analyzed on Bruker FlexAnalysis software.
Relative inhibition was monitored via assessing percent product decrease with L-Leu NOG
MALDI-based assay for C14orf169 (NO66) and MINA: To monitor the enzymatic activity of […]
1 µL S-DHB matrix were spotted on a MALDI plate and monitored with Bruker FlexControl in
the reflectron positive mode and analyzed on Bruker FlexAnalysis software. […]
was monitored via assessing percent product decrease with L-Leu NOG samples compared to no […]
monitored following a reported method.19 To monitor the enzymatic activity of EGLN1 and 3 […]

## CC(C)CC(NC(=O)C(=O)O)C(=O)O (stereo not drawn) [compound 6, N-oxalyl leucine]
[1]
  inhibition of demethylation of full-length histone H3 by asKDM4 mutants: noticeably inhibited
[1]; listed as NOL 6
  inhibition of demethylation of full-length histone H3 by asKDM4 mutants: inhibits the mutants
PHD3 (EGLN3)
  inhibition of PHD3: No inhibition
